# Earlier results in patent publication US20220248734A1, “NUTRITIONAL HEALTH SUPPLEMENTS” (MAYO FOUNDATION FOR MEDICAL EDUCATION AND RESEARCH, priority 2019, published 2022).
# Details: NAC received within 24 hours of head injury from a blast
smiles,measurement,value
"CC(=O)N[C@@H](CS)C(=O)O [NAC, N-acetyl cysteine]",side effects,no reported side effects
same,symptom resolution,significantly increases symptom resolution
